Source: ChEMBL document CHEMBL1150950, “Antimicrobial activity of 8-alkyl- and 8-phenyl-substituted berberines and their 12-bromo derivatives” (1998)

Legend:
Salmonella enteritidis = assay: Antibacterial activity against Salmonella enteritidis after 24 hrs by serial broth dilution test; assay type: functional, Salmonella enterica subsp. enterica serovar Enteritidis; details: Salmonella enterica
Staphylococcus aureus = assay: Antibacterial activity against Staphylococcus aureus after 24 hrs by serial broth dilution test; assay type: functional
Candida albicans = assay: Antifungal activity against Candida albicans IFO 1061 after 48 hrs by serial broth dilution test; assay type: functional; details: IFO 1061, 48 h
Bacillus subtilis = assay: Antibacterial activity against Bacillus subtilis after 24 hrs by serial broth dilution test; assay type: functional
Escherichia coli = assay: Antibacterial activity against Escherichia coli IFO 026 after 24 hrs by serial broth dilution test; assay type: functional; details: IFO 026, 24 h

SMILES | MIC (Salmonella enteritidis) [µg/mL] | MIC (Staphylococcus aureus) [µg/mL] | MIC (Candida albicans) [µg/mL] | MIC (Bacillus subtilis) [µg/mL] | MIC (Escherichia coli) [µg/mL]
CCCCc1c2c(OC)c(OC)cc(Br)c2cc2[n+]1CCc1cc3c(cc1-2)OCO3.[Cl-] | 15.6 | 7.8 | 62.5 | 7.8 | 250
COc1cc(Br)c2cc3[n+](cc2c1OC)CCc1cc2c(cc1-3)OCO2.[Cl-] | 125 | 125 | 500 | 125 | > 500
CCCc1c2c(OC)c(OC)cc(Br)c2cc2[n+]1CCc1cc3c(cc1-2)OCO3.[Cl-] | 15.6 | 15.6 | 125 | 15.6 | 500
COc1ccc2cc3[n+](cc2c1OC)CCc1cc2c(cc1-3)OCO2.[Cl-] [BERBERINE CHLORIDE] | 500 | 250 | 500 | 1000 | > 2000
COc1ccc2cc3[n+](c(C)c2c1OC)CCc1cc2c(cc1-3)OCO2.[Cl-] | 125 | 125 | 250 | 250 | > 500
CCc1c2c(OC)c(OC)ccc2cc2[n+]1CCc1cc3c(cc1-2)OCO3.[Cl-] | 62.5 | 62.5 | 125 | 125 | > 500
CCCc1c2c(OC)c(OC)ccc2cc2[n+]1CCc1cc3c(cc1-2)OCO3.[Cl-] | 31.2 | 31.2 | 250 | 62.5 | 500
COc1cc(Br)c2cc3[n+](c(-c4ccccc4)c2c1OC)CCc1cc2c(cc1-3)OCO2.[Cl-] | 31.2 | 31.2 | 250 | 31.2 | 500
NC[C@H]1O[C@H](O[C@H]2[C@H](O)[C@@H](O[C@H]3O[C@H](CO)[C@@H](O)[C@H](N)[C@H]3O)[C@H](N)C[C@@H]2N)[C@H](O)[C@@H](O)[C@@H]1O.O=S(=O)(O)O [KANAMYCIN SULFATE] | 62.5 | 31.2 | > 2000 | 3.9 | 31.2
CCCCCCc1c2c(OC)c(OC)cc(Br)c2cc2[n+]1CCc1cc3c(cc1-2)OCO3.[Cl-] | 3.9 | 3.9 | 15.6 | 3.9 | 125
COc1ccc2cc3[n+](c(-c4ccccc4)c2c1OC)CCc1cc2c(cc1-3)OCO2.[Cl-] | 125 | 62.5 | 250 | 62.5 | > 500
CCc1c2c(OC)c(OC)cc(Br)c2cc2[n+]1CCc1cc3c(cc1-2)OCO3.[Cl-] | 31.2 | 31.2 | 250 | 31.2 | 500
CCCCc1c2c(OC)c(OC)ccc2cc2[n+]1CCc1cc3c(cc1-2)OCO3.[Cl-] | 31.2 | 15.6 | 250 | 31.2 | 500
